Measured values published in ChEMBL document CHEMBL3112465 (Eur J Med Chem, 2014).
Activity calls are given as the source filed them. No cut-off for these calls is given here.

Assays:
[1] = biological target: Prostaglandin G/H synthase 1 (Homo sapiens, UniProt P23219); design: species or system Blood
[2] = biological target: T1, Prostaglandin G/H synthase 2 (Homo sapiens, UniProt P35354); design: species or system Blood
T1 sequence (P35354 whole entry): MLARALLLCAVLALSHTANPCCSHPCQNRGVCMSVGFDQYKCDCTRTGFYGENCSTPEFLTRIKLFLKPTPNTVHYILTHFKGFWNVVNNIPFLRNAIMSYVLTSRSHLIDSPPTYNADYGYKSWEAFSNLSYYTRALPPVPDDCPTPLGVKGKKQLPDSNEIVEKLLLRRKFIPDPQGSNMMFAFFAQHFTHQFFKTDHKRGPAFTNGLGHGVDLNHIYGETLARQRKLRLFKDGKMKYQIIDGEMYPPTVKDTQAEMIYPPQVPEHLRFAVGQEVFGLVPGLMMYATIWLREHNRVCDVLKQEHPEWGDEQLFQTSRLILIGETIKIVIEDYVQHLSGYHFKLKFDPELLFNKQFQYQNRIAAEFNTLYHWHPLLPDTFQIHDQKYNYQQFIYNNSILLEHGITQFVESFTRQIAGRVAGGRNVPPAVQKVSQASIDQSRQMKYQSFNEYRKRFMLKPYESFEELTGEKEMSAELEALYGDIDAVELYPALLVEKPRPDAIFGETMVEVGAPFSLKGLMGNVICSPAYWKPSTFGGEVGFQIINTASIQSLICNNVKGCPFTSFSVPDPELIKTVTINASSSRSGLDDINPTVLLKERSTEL

[3] = Plasma concentration in Wistar rat lambda carrageenan-induced pleurisy model at 10 mg/kg, ip pretreated for 30 mins followed by lambda carrageenan-challenge measured after 4 hrs by SPE-HPLC analysis; type: ADME, organism-based; design: dose 10 mg/kg, route intraperitoneal
[4] = Plasma concentration in Wistar rat lambda carrageenan-induced pleurisy model at 20 mg/kg, ip pretreated for 30 mins followed by lambda carrageenan-challenge measured after 4 hrs by SPE-HPLC analysis; type: ADME, organism-based; design: dose 20 mg/kg, route intraperitoneal
Rattus norvegicus [5] = assay: Antiinflammatory activity in Wistar rat lambda carrageenan-induced pleurisy model assessed as decrease in number of leukocytes in pleural space at 5 mg/kg, ip pretreated for 30 mins followed by lambda carrageenan-challenge measured after 4 hrs relative to control; type: functional
Rattus norvegicus [6] = assay: Antiinflammatory activity in Wistar rat lambda carrageenan-induced pleurisy model assessed as decrease in number of leukocytes in pleural space at 20 mg/kg, ip pretreated for 30 mins followed by lambda carrageenan-challenge measured after 4 hrs relative to control; type: functional
[7] = Plasma concentration in Wistar rat lambda carrageenan-induced pleurisy model at 5 mg/kg, ip pretreated for 30 mins followed by lambda carrageenan-challenge measured after 4 hrs by SPE-HPLC analysis; type: ADME, organism-based; design: dose 5 mg/kg, route intraperitoneal
Rattus norvegicus [8] = assay: Antiinflammatory activity in Wistar rat lambda carrageenan-induced pleurisy model assessed as decrease in number of leukocytes in pleural space at 10 mg/kg, ip pretreated for 30 mins followed by lambda carrageenan-challenge measured after 4 hrs relative to control; type: functional
Rattus norvegicus [9] = assay: Antiinflammatory activity in Wistar rat lambda carrageenan-induced pleurisy model assessed as decrease in exudate volume at 10 mg/kg, ip pretreated for 30 mins followed by lambda carrageenan-challenge measured after 4 hrs relative to control; type: functional; conditions: route intraperitoneal
Rattus norvegicus [10] = assay: Antiinflammatory activity in Wistar rat lambda carrageenan-induced pleurisy model assessed as decrease in exudate volume at 5 mg/kg, ip pretreated for 30 mins followed by lambda carrageenan-challenge measured after 4 hrs relative to control; type: functional; conditions: route intraperitoneal
Rattus norvegicus [11] = assay: Antiinflammatory activity in Wistar rat lambda carrageenan-induced pleurisy model assessed as decrease in exudate volume at 20 mg/kg, ip pretreated for 30 mins followed by lambda carrageenan-challenge measured after 4 hrs relative to control; type: functional; conditions: route intraperitoneal
[12] = Retention time of the compound by chromatographic analysis; type: physicochemical

Sequence of Prostaglandin G/H synthase 1 (P23219 whole entry): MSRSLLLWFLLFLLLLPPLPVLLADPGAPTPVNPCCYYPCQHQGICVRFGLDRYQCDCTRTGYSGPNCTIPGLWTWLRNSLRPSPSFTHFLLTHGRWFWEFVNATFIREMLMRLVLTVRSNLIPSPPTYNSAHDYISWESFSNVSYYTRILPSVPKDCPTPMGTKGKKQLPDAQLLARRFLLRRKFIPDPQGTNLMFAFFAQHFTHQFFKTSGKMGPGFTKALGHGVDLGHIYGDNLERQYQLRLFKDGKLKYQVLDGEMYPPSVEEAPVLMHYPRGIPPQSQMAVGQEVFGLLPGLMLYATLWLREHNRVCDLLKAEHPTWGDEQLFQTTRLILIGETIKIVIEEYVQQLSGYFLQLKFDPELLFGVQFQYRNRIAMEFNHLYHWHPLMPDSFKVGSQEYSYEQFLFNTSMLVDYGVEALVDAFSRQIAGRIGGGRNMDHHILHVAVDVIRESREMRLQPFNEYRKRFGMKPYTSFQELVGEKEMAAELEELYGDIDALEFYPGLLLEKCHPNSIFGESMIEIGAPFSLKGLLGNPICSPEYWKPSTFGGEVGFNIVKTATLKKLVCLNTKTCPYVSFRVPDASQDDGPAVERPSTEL

CS(=O)(=O)Nc1ccncc1Nc1cccc(F)c1
IC50 [1]: 1.37 µM | IC50 [2]: 10 µM

CS(=O)(=O)Nc1ccncc1Nc1cccc(Cl)c1
concentration at 4 h [3]: 690 ng/mL | concentration at 4 h [4]: 1860 ng/mL | Activity (Rattus norvegicus [5]): inactive | Activity (Rattus norvegicus [6]): inactive | concentration at 4 h [7]: 260 ng/mL | Activity (Rattus norvegicus [8]): inactive

CS(=O)(=O)Nc1ccc([N+](=O)[O-])cc1Oc1ccccc1 [NIMESULIDE]
concentration at 4 h [3]: 41300 ng/mL | concentration at 4 h [4]: 75200 ng/mL | Activity (Rattus norvegicus [5]; route intraperitoneal): 23.08% | Activity (Rattus norvegicus [6]; route intraperitoneal): 72.93% | inhibition in vivo at 10 mg/kg (Rattus norvegicus [9]): 48.4% | concentration at 4 h [7]: 17000 ng/mL | inhibition in vivo at 5 mg/kg (Rattus norvegicus [10]): 31.1% | Activity (Rattus norvegicus [8]; route intraperitoneal): 52.05%

O=S(=O)(Nc1ccncc1Nc1cccc(Cl)c1)C(F)(F)F
concentration at 4 h [3]: 680 ng/mL | concentration at 4 h [4]: 1400 ng/mL | Activity (Rattus norvegicus [5]): inactive | Activity (Rattus norvegicus [6]; route intraperitoneal): 16.41% | concentration at 4 h [7]: 560 ng/mL | Activity (Rattus norvegicus [8]): inactive

O=S(=O)(Nc1ccncc1Nc1ccc(F)c(Br)c1)C(F)(F)F
concentration at 4 h [3]: 34100 ng/mL | concentration at 4 h [4]: 59100 ng/mL | Activity (Rattus norvegicus [5]; route intraperitoneal): 11.13% | Activity (Rattus norvegicus [6]; route intraperitoneal): 69.78% | inhibition in vivo at 20 mg/kg (Rattus norvegicus [11]): 66.5% | inhibition in vivo at 10 mg/kg (Rattus norvegicus [9]): 42.6% | concentration at 4 h [7]: 11400 ng/mL | IC50 [1]: 1.35 µM | IC50 [2]: 2.27 µM | inhibition in vivo at 5 mg/kg (Rattus norvegicus [10]): 21.9% | Activity (Rattus norvegicus [8]; route intraperitoneal): 41.22%

O=S(=O)(Nc1ccncc1Nc1ccc(O)c(Br)c1)C(F)(F)F
IC50 [1]: 4.21 µM | Retention_time [12]: 10.34 min | IC50 [2]: > 100 µM

CCCC(C)C1(CC)C(=O)NC(=O)NC1=O (centres undefined) [PENTOBARBITAL]
Retention_time [12]: 11.71 min

O=S(=O)(Nc1ccncc1Nc1ccc(F)c(Cl)c1)C(F)(F)F
concentration at 4 h [3]: 30000 ng/mL | concentration at 4 h [4]: 54600 ng/mL | Activity (Rattus norvegicus [5]; route intraperitoneal): 14.74% | Activity (Rattus norvegicus [6]; route intraperitoneal): 64.71% | inhibition in vivo at 20 mg/kg (Rattus norvegicus [11]): 73.5% | inhibition in vivo at 10 mg/kg (Rattus norvegicus [9]): 67.5% | concentration at 4 h [7]: 13000 ng/mL | IC50 [1]: 1.74 µM | IC50 [2]: 1.57 µM | inhibition in vivo at 5 mg/kg (Rattus norvegicus [10]): 36.6% | Activity (Rattus norvegicus [8]; route intraperitoneal): 48.23%

Cc1ccc(Nc2cnccc2NS(C)(=O)=O)cc1C
IC50 [1]: 3.28 µM | IC50 [2]: 30.7 µM

O=S(=O)(Nc1ccncc1Nc1ccc(F)cc1)C(F)(F)F
IC50 [1]: 0.27 µM | IC50 [2]: 0.3 µM

O=S(=O)(Nc1ccncc1Nc1cccc(Br)c1)C(F)(F)F
concentration at 4 h [3]: 430 ng/mL | concentration at 4 h [4]: 820 ng/mL | Activity (Rattus norvegicus [5]; route intraperitoneal): 27.1% | Activity (Rattus norvegicus [6]; route intraperitoneal): 28.52% | concentration at 4 h [7]: 300 ng/mL | Retention_time [12]: 13.65 min | Activity (Rattus norvegicus [8]; route intraperitoneal): 27.07%

O=S(=O)(Nc1ccncc1Nc1cccc(F)c1)C(F)(F)F
IC50 [1]: 0.44 µM | IC50 [2]: 0.24 µM

Cc1cc(Nc2cnccc2NS(=O)(=O)C(F)(F)F)ccc1Br
IC50 [1]: 2.32 µM | IC50 [2]: 0.3 µM

Cc1ccc(Nc2cnccc2NS(=O)(=O)C(F)(F)F)cc1C
IC50 [1]: 0.71 µM | IC50 [2]: 0.55 µM

O=S(=O)(Nc1ccncc1Nc1ccccc1)C(F)(F)F
concentration at 4 h [3]: 1540 ng/mL | concentration at 4 h [4]: 3620 ng/mL | Activity (Rattus norvegicus [5]; route intraperitoneal): 24.82% | Activity (Rattus norvegicus [6]; route intraperitoneal): 51.7% | inhibition in vivo at 20 mg/kg (Rattus norvegicus [11]): 72.2% | inhibition in vivo at 10 mg/kg (Rattus norvegicus [9]): 55.7% | concentration at 4 h [7]: 720 ng/mL | inhibition in vivo at 5 mg/kg (Rattus norvegicus [10]): 25.4% | Activity (Rattus norvegicus [8]; route intraperitoneal): 34.83%

Cc1ccc(-c2cc(C(F)(F)F)nn2-c2ccc(S(N)(=O)=O)cc2)cc1 [CELECOXIB]
concentration at 4 h [3]: 1130 ng/mL | concentration at 4 h [4]: 2680 ng/mL | Activity (Rattus norvegicus [5]; route intraperitoneal): 24.02% | Activity (Rattus norvegicus [6]; route intraperitoneal): 28.87% | inhibition in vivo at 20 mg/kg (Rattus norvegicus [11]): 42.1% | inhibition in vivo at 10 mg/kg (Rattus norvegicus [9]): 27.3% | concentration at 4 h [7]: 620 ng/mL | inhibition in vivo at 5 mg/kg (Rattus norvegicus [10]): 15.7% | Activity (Rattus norvegicus [8]; route intraperitoneal): 23.05%

Cc1cc(C)cc(Nc2cnccc2NS(C)(=O)=O)c1
IC50 [1]: 14.9 µM | IC50 [2]: > 100 µM

O=S(=O)(Nc1ccncc1Nc1ccccc1)C1CC1
IC50 [1]: 3.61 µM | IC50 [2]: 35.1 µM

O=S(=O)(C1CC1)N(c1ccncc1Nc1ccccc1)S(=O)(=O)C1CC1
IC50 [1]: 19.6 µM | IC50 [2]: 56.8 µM

Cc1ccc(Nc2cnccc2NS(=O)(=O)C(F)(F)F)cc1Cl
IC50 [1]: 1.47 µM | IC50 [2]: 1.96 µM

O=S(=O)(Nc1ccncc1Nc1ccc(Cl)cc1)C(F)(F)F
concentration at 4 h [3]: 9490 ng/mL | concentration at 4 h [4]: 27300 ng/mL | Activity (Rattus norvegicus [5]; route intraperitoneal): 44.15% | Activity (Rattus norvegicus [6]; route intraperitoneal): 72.47% | concentration at 4 h [7]: 4610 ng/mL | Activity (Rattus norvegicus [8]; route intraperitoneal): 54.44%

N#Cc1cccc(Nc2cnccc2NS(=O)(=O)C(F)(F)F)c1
IC50 [1]: 6.65 µM | IC50 [2]: 36.2 µM

Cc1ccc(Nc2cnccc2NS(=O)(=O)C(F)(F)F)cc1Br
concentration at 4 h [3]: 180 ng/mL | concentration at 4 h [4]: 920 ng/mL | Activity (Rattus norvegicus [5]): inactive | Activity (Rattus norvegicus [6]; route intraperitoneal): 44.06% | inhibition in vivo at 20 mg/kg (Rattus norvegicus [11]): 71% | inhibition in vivo at 10 mg/kg (Rattus norvegicus [9]): 57.1% | concentration at 4 h [7]: 170 ng/mL | IC50 [1]: 1.4 µM | IC50 [2]: 0.09 µM | inhibition in vivo at 5 mg/kg (Rattus norvegicus [10]): 19.4% | Activity (Rattus norvegicus [8]; route intraperitoneal): 26.24%

CS(=O)(=O)Nc1ccncc1Nc1ccc(F)cc1
IC50 [1]: 2.09 µM | IC50 [2]: 20.7 µM

Cc1cccc(Nc2cnccc2NS(=O)(=O)C(F)(F)F)c1
concentration at 4 h [3]: 200 ng/mL | concentration at 4 h [4]: 410 ng/mL | Activity (Rattus norvegicus [5]; route intraperitoneal): 17.07% | Activity (Rattus norvegicus [6]; route intraperitoneal): 50.18% | concentration at 4 h [7]: 100 ng/mL | Activity (Rattus norvegicus [8]; route intraperitoneal): 24.98%

O=S(=O)(Nc1ccncc1Nc1ccc(O)cc1)C(F)(F)F
IC50 [1]: 18.1 µM | IC50 [2]: > 100 µM

O=S(=O)(Nc1ccncc1Nc1cccc(I)c1)C(F)(F)F
IC50 [1]: 1.93 µM | IC50 [2]: 0.26 µM

Cc1cc(C)cc(Nc2cnccc2NS(=O)(=O)C(F)(F)F)c1
IC50 [1]: 4.11 µM | IC50 [2]: 1.04 µM
